# Test results as given in ChEMBL document CHEMBL2016442, “Structure-activity studies of some berberine analogs as inhibitors of Toxoplasma gondii” (Bioorg Med Chem Lett, 2012).
# pIC50: −log10 of the molar value.
# Legend:
# Toxoplasma gondii [1] = experiment: Antiparasitic activity against Toxoplasma gondii ATCC 50839 infected in human fibroblasts assessed as inhibition of replication of tachyzoites after 4 days by bacterial beta-galactosidase assay; type: functional; conditions: ATCC 50839, 96 h, read-out: ID50 (the source's name)
# [2] = Therapeutic index, ratio of TD50 for human fibroblast cell to ID 50 for Toxoplasma gondii ATCC 50839; type: cell-based; conditions: human fibroblast cells, read-out: TI
# [3] = Cytotoxicity against human fibroblasts assessed as cell viability by microplate reader; type: cell-based, Fibroblast; conditions: read-out: TD50 (the source's name)
# Toxoplasma gondii [4] = experiment: Ratio of trimethoprim ID50 to compound ID50 for Toxoplasma gondii ATCC 50839; type: functional
compound,measurement,setting,value
CCCC(=O)Oc1c(OC)ccc2cc3[n+](cc12)CCc1cc2c(cc1-3)OCO2,pIC50,Toxoplasma gondii [1],7.17
same,selectivity ratio,[2],2000
same,CC50,[3],135 µM
COc1ccc2c(c1OC)C(C)N1CCc3cc4c(cc3C1=C2)OCO4 (stereo not given),pIC50,Toxoplasma gondii [1],5.38
same,selectivity ratio,[2],3
same,CC50,[3],12 µM
CCOc1c(OC)ccc2cc3[n+](cc12)CCc1cc2c(cc1-3)OCO2,pIC50,Toxoplasma gondii [1],6.08
same,selectivity ratio,[2],12
same,CC50,[3],9.6 µM
CCCCCOc1c(OC)ccc2cc3[n+](cc12)CCc1cc2c(cc1-3)OCO2,pIC50,Toxoplasma gondii [1],5.74
same,selectivity ratio,[2],3
same,CC50,[3],5.9 µM
CCCCCCCOc1c(OC)ccc2cc3[n+](cc12)CCc1cc2c(cc1-3)OCO2,pIC50,Toxoplasma gondii [1],6.70
same,selectivity ratio,[2],5.5
same,CC50,[3],1.1 µM
COc1ccc2cc3[n+](cc2c1OC(C)=O)CCc1cc2c(cc1-3)OCO2,pIC50,Toxoplasma gondii [1],7.12
same,selectivity ratio,[2],600
same,CC50,[3],45 µM
CCCCCC(=O)Oc1c(OC)ccc2cc3[n+](cc12)CCc1cc2c(cc1-3)OCO2,pIC50,Toxoplasma gondii [1],7.44
same,selectivity ratio,[2],4000
same,CC50,[3],145 µM
COc1ccc2cc3[n+](cc2c1OC)CCc1cc2c(cc1-3)OCO2 [BERBERINE],pIC50,Toxoplasma gondii [1],6.24
same,selectivity ratio,[2],1.5
same,Ratio,Toxoplasma gondii [4],30
same,CC50,[3],0.85 µM
COc1ccc2cc3[n+](cc2c1O)CCc1cc2c(cc1-3)OCO2 [BERBERRUBINE],pIC50,Toxoplasma gondii [1],7.22
same,selectivity ratio,[2],1300
same,CC50,[3],81 µM
COc1ccc2c(c1OC)CN1CCc3cc4c(cc3[C@@H]1C2)OCO4 [CANADINE],pIC50,Toxoplasma gondii [1],5.06
same,selectivity ratio,[2],24
same,CC50,[3],210 µM
COc1ccc2c(c1OC)CN1CCc3cc4c(cc3C1=C2)OCO4 [DIHYDROBERBERINE],pIC50,Toxoplasma gondii [1],6.19
same,selectivity ratio,[2],63
same,CC50,[3],41 µM
COc1ccc2cc3n(c(=O)c2c1OC)CCc1cc2c(cc1-3)OCO2 [OXYBERBERINE],pIC50,Toxoplasma gondii [1],4.92
same,selectivity ratio,[2],8
same,CC50,[3],97 µM
COc1cc(Cc2cnc(N)nc2N)cc(OC)c1OC [TRIMETHOPRIM],pIC50,Toxoplasma gondii [1],4.82
same,selectivity ratio,[2],> 3
same,CC50,[3],> 500 µM
